In one assay the test system is RAT MAST CELL. Briefly: Inhibition of rat mast cell degranulation in vitro (histamine release). It counts as cell-based, rats. The following applies: ID20 = inhibitory dose causing 20% inhibition, mast cells stimulated in vitro. The text has this: First, mast cells from rats (peritoneal cavity) or humans (chronic peritoneal dialysis fluid) are purified; otherwise, rat basophilic leukemia (RBL) cells are kept in culture. Any of these mast cells are then exposed to various concentrations of inhibitory compounds to allow binding of the inhibitor to the receptor sites before testing their efficacy with respect to inhibition of mast cell degranulation. They are then used as such or washed free of unbound drug before exposure to stimuli known to induce degranulation. Compounds which are inhibitory prevent the stimulus from causing degranulation by binding to specific receptors or inactivating a crucial step in the degranulation process.
The mast cell degranulation blocking agent is administered in a pharmaceutically effective amount. The dosage range for pharmaceutical effectiveness can be determined by reference to standard laboratory tests for inhibition of mast cell degranulation and by the dosages used for such agents in other conditions. The pharmaceutically effective dose of the mast cell degranulation blocking agent can be approximated by its ID20, which is defined as the dose necessary to cause 20% inhibition in mast cells when applied to mast cells stimulated in vitro. The ID20 of selected inhibitors of the anti-histamine category is as follows: Table 2

For assay [1] the following is noted: administered individually, without analgesic; cited from earlier work.
The next assay has as its system Rat Mesentery Mast Cells. To be noted: ED20 = effective dose causing 20% secretion; antihistamines which cause mast cell degranulation; cited from earlier work.
The conditions of assay [2]: intramuscular administration during severe migraine; hydroxyzine 50 mg; compared with placebo; cited from earlier work.

Data on twelve compounds can be found in EP0618796B1 (priority 1991, dated 1993).

In turn, `CN1CCC(=C2c3ccccc3CCc3cccnc32)CC1` [Azatadine] yielded a concentration for an effect of 20% (IC20) in the assay on RAT MAST CELL of 0.1 µM. In the case of `CC(C)(C)c1ccc(CN2CCN(C(c3ccccc3)c3ccc(Cl)cc3)CC2)cc1` (stereo not shown) [Buclizine, buclizine], the effectiveness against migraine result in assay [1] is “ineffective”. On to `CN(C)CCC(c1ccc(Cl)cc1)c1ccccn1` (stereo not shown) [Clorphenyramine], for which the “ED20 for Histamine Release” value in the assay with Rat Mesentery Mast Cells was 10^-3 M. For the compound `CN1CCN(C(c2ccccc2)c2ccccc2)CC1` [Cyclizine], in the assay on Rat Mesentery Mast Cells, the “ED20 for Histamine Release” value was 0.0005 M. Consider `CN1CCC(=C2c3ccccc3C=Cc3ccccc32)CC1` [Cyproheptadine], for which, in the assay with RAT MAST CELL, the 20% effect level (IC20) was put at 5 µM. As to `CN(C)CCOC(c1ccccc1)c1ccccc1` [Diphenhydramine], in the assay on Rat Mesentery Mast Cells, the “ED20 for Histamine Release” value was 10^-3 M. `OCCOCCN1CCN(C(c2ccccc2)c2ccc(Cl)cc2)CC1` (stereo not shown) [Hydroxyzine]: the “effectiveness in the treatment of pain associated with classic migraine” value in assay [2] is given as “no more effective than a placebo”. The compound further registered an IC20 in the assay on RAT MAST CELL of 50 µM. The compound `CN1CCC(=C2c3ccccc3CC(=O)c3sccc32)CC1` [Ketotifen] had an IC20 in the assay on RAT MAST CELL of 10 µM.

In the case of `O=c1[nH]c2ccccc2n1CCCN1CCN(C(c2ccccc2)c2ccccc2)CC1` [Oxatomide], the 20% effect level with RAT MAST CELL (IC20) was put at 0.1 µM. As for `CC(CN1c2ccccc2Sc2ccccc21)N(C)C` (stereo not shown) [Promethazine], in the assay with Rat Mesentery Mast Cells, the “ED20 for Histamine Release” value is given as 10^-4 M. In turn, `CC(C)(C)c1ccc(C(O)CCCN2CCC(C(O)(c3ccccc3)c3ccccc3)CC2)cc1` (stereo not shown) [Terfenadine] yielded an IC20 with RAT MAST CELL of 5 µM.

On to `Oc1ccc2c3c1O[C@H]1[C@@H](O)CC[C@@]4(O)[C@@H](C2)N(CC2CCC2)CC[C@]314` [nalbuphine], for which the “effectiveness in the treatment of pain associated with classic migraine” value in assay [2] was “no more effective than a placebo”.
